PubChem BioAssay (NCI)
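1) Cells in 96-well plates. 2) Compound, 48 h, 5 concentrations. 3) Linear interpolation between surrounding doses. 4) Unreached endpoint = highest concentration. GI50: concentration for 50% inhibition of growth. At the TGI there is no net growth.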

Legend:
Test in all cases: growth of human tumour cells (NCI), 48 h; in the data active means GI50 below about 0.43 µM; inactive means the rest
HL-60(TB) leukemia = test system: HL-60(TB) leukemia
DU-145 prostate = test system: DU-145 prostate
SK-MEL-5 melanoma = test system: SK-MEL-5 melanoma
MDA-N = test system: MDA-N
CAKI-1 renal = test system: CAKI-1 renal
A549 NSCLC = test system: A549 NSCLC
MDA-MB-435 = test system: MDA-MB-435
SF-539 CNS = test system: SF-539 CNS
HOP-62 NSCLC = test system: HOP-62 NSCLC
786-0 renal = test system: 786-0 renal
NCI-H23 lung = test system: NCI-H23 lung
OVCAR-4 ovarian = test system: OVCAR-4 ovarian
MOLT-4 leukemia = test system: MOLT-4 leukemia
SW-620 colon = test system: SW-620 colon
HCT-116 colon = test system: HCT-116 colon
SN12C renal = test system: SN12C renal
SK-MEL-2 melanoma = test system: SK-MEL-2 melanoma
SR leukemia = test system: SR leukemia
TK-10 renal = test system: TK-10 renal
NCI-H226 lung = test system: NCI-H226 lung
KM12 colon = test system: KM12 colon
SF-295 CNS = test system: SF-295 CNS
HCT-15 colon = test system: HCT-15 colon
K-562 leukemia = test system: K-562 leukemia
OVCAR-5 ovarian = test system: OVCAR-5 ovarian
T-47D breast = test system: T-47D breast
CCRF-CEM leukemia = test system: CCRF-CEM leukemia
OVCAR-3 ovarian = test system: OVCAR-3 ovarian
RPMI-8226 leukemia = test system: RPMI-8226 leukemia
MDA-MB-231 breast = test system: MDA-MB-231 breast
IGROV1 ovarian = test system: IGROV1 ovarian
SK-OV-3 ovarian = test system: SK-OV-3 ovarian
EKVX NSCLC = test system: EKVX NSCLC
PC-3 prostate = test system: PC-3 prostate
M14 melanoma = test system: M14 melanoma
HOP-92 NSCLC = test system: HOP-92 NSCLC
A498 renal = test system: A498 renal
ACHN renal = test system: ACHN renal
NCI-H522 lung = test system: NCI-H522 lung
BT-549 breast = test system: BT-549 breast
NCI/ADR-RES ovarian = test system: NCI/ADR-RES ovarian
LOX IMVI melanoma = test system: LOX IMVI melanoma
HT29 colon = test system: HT29 colon
SF-268 CNS = test system: SF-268 CNS
SNB-75 CNS = test system: SNB-75 CNS
MALME-3M melanoma = test system: MALME-3M melanoma
RXF 393 renal = test system: RXF 393 renal
U251 CNS = test system: U251 CNS
UACC-62 melanoma = test system: UACC-62 melanoma
UACC-257 melanoma = test system: UACC-257 melanoma
SK-MEL-28 melanoma = test system: SK-MEL-28 melanoma
HS 578T breast = test system: HS 578T breast
SNB-19 CNS = test system: SNB-19 CNS
MCF7 breast = test system: MCF7 breast
HCC-2998 colon = test system: HCC-2998 colon
NCI-H460 lung = test system: NCI-H460 lung
UO-31 renal = test system: UO-31 renal
COLO 205 colon = test system: COLO 205 colon
OVCAR-8 ovarian = test system: OVCAR-8 ovarian
SNB-78 CNS = test system: SNB-78 CNS
DLD-1 colon = test system: DLD-1 colon
KM20L2 colon = test system: KM20L2 colon
LXFL 529 NSCLC = test system: LXFL 529 NSCLC
DMS 114 small cell lung = test system: DMS 114 small cell lung

COC(=O)c1cccc(OC)c1C#Cc1c(OC)cccc1OC
> 100 µM: TGI (HL-60(TB) leukemia) | TGI (DU-145 prostate) | TGI (SK-MEL-5 melanoma) | TGI (MDA-N) | TGI (CAKI-1 renal) | TGI (A549 NSCLC) | TGI (MDA-MB-435) | TGI (SF-539 CNS) | TGI (HOP-62 NSCLC) | TGI (786-0 renal) | TGI (NCI-H23 lung) | TGI (OVCAR-4 ovarian) | TGI (MOLT-4 leukemia) | TGI (SW-620 colon) | TGI (HCT-116 colon) | TGI (SN12C renal) | TGI (SK-MEL-2 melanoma) | TGI (SR leukemia) | TGI (TK-10 renal) | TGI (NCI-H226 lung) | TGI (KM12 colon) | TGI (SF-295 CNS) | TGI (HCT-15 colon) | TGI (K-562 leukemia) | TGI (OVCAR-5 ovarian) | TGI (T-47D breast) | TGI (CCRF-CEM leukemia) | TGI (OVCAR-3 ovarian) | TGI (RPMI-8226 leukemia) | TGI (MDA-MB-231 breast) | TGI (IGROV1 ovarian) | TGI (SK-OV-3 ovarian) | TGI (EKVX NSCLC) | TGI (PC-3 prostate) | TGI (M14 melanoma) | TGI (HOP-92 NSCLC) | TGI (A498 renal) | TGI (ACHN renal) | TGI (NCI-H522 lung) | TGI (BT-549 breast) | TGI (NCI/ADR-RES ovarian) | TGI (LOX IMVI melanoma) | TGI (HT29 colon) | TGI (SF-268 CNS) | TGI (SNB-75 CNS) | TGI (MALME-3M melanoma) | TGI (RXF 393 renal) | TGI (U251 CNS) | TGI (UACC-62 melanoma) | TGI (UACC-257 melanoma) | TGI (SK-MEL-28 melanoma) | TGI (HS 578T breast) | TGI (SNB-19 CNS) | TGI (MCF7 breast) | TGI (HCC-2998 colon) | TGI (NCI-H460 lung) | TGI (UO-31 renal) | TGI (COLO 205 colon) | TGI (OVCAR-8 ovarian)

C=C1C(=O)OC2/C=C(\CO)CC/C=C(\CO)CC(OC(=O)C(C)C)C12 (stereo not given)
11.6 µM: TGI (HCT-15 colon)
30 µM: TGI (HT29 colon)
4.13 µM: TGI (HOP-92 NSCLC)
> 27.4 µM: TGI (MOLT-4 leukemia)
> 24.2 µM: TGI (K-562 leukemia)
> 33.2 µM: TGI (CCRF-CEM leukemia)
38.6 µM: TGI (NCI-H460 lung)
19.3 µM: TGI (RXF 393 renal)
22.9 µM: TGI (SW-620 colon)
> 24.8 µM: TGI (HL-60(TB) leukemia)
29.4 µM: TGI (UACC-62 melanoma)
45.7 µM: TGI (OVCAR-8 ovarian)
32.2 µM: TGI (SNB-75 CNS)
29.8 µM: TGI (OVCAR-5 ovarian)
> 52.1 µM: TGI (SR leukemia)
4.18 µM: TGI (COLO 205 colon)
33.5 µM: TGI (KM12 colon)
43.3 µM: TGI (U251 CNS)
4.11 µM: TGI (NCI-H522 lung)
37.2 µM: TGI (HCC-2998 colon)
38 µM: TGI (MDA-MB-231 breast)
38.8 µM: TGI (EKVX NSCLC)
36.3 µM: TGI (HOP-62 NSCLC)
45.3 µM: TGI (NCI/ADR-RES ovarian)
24.8 µM: TGI (T-47D breast)
34.2 µM: TGI (NCI-H226 lung)
31.1 µM: TGI (PC-3 prostate)
23.9 µM: TGI (OVCAR-3 ovarian)
45.5 µM: TGI (SF-295 CNS)
29 µM: TGI (SF-539 CNS)
19.9 µM: TGI (M14 melanoma)
27.4 µM: TGI (UO-31 renal)
33.6 µM: TGI (IGROV1 ovarian)
23.4 µM: TGI (BT-549 breast)
26.1 µM: TGI (SN12C renal)
8.85 µM: TGI (MCF7 breast)
3.31 µM: TGI (CAKI-1 renal)
15.6 µM: TGI (TK-10 renal)
47.9 µM: TGI (HCT-116 colon)
4.45 µM: TGI (MALME-3M melanoma)
36 µM: TGI (SK-MEL-5 melanoma)
3.54 µM: TGI (ACHN renal)
30.8 µM: TGI (SK-MEL-2 melanoma)
20.2 µM: TGI (786-0 renal)
19.8 µM: TGI (SF-268 CNS)
37 µM: TGI (A549 NSCLC)
45.8 µM: TGI (LOX IMVI melanoma)
49 µM: TGI (HS 578T breast)
45.9 µM: TGI (SNB-19 CNS)
38.5 µM: TGI (NCI-H23 lung)
25.5 µM: TGI (RPMI-8226 leukemia)
44 µM: TGI (OVCAR-4 ovarian)
59.2 µM: TGI (A498 renal)
> 55.9 µM: TGI (SK-OV-3 ovarian)
17.9 µM: TGI (MDA-N)
42.4 µM: TGI (SK-MEL-28 melanoma)
29.5 µM: TGI (DU-145 prostate) | TGI (MDA-MB-435)
27 µM: TGI (UACC-257 melanoma)

CCOC(=O)C(=CN1CCNC1=S)C(=O)OCC
inactive: GI50 (TK-10 renal) > 100 µM | GI50 (KM12 colon) > 100 µM | GI50 (HOP-92 NSCLC) > 100 µM | GI50 (SF-268 CNS) > 100 µM | GI50 (SNB-75 CNS) > 100 µM | GI50 (HS 578T breast) > 100 µM | GI50 (SNB-19 CNS) > 100 µM | GI50 (UO-31 renal) > 100 µM
> 32.4 µM: TGI (OVCAR-3 ovarian)
> 100 µM: TGI (HL-60(TB) leukemia) | TGI (DU-145 prostate) | TGI (SK-MEL-5 melanoma) | TGI (MDA-N) | TGI (CAKI-1 renal) | TGI (A549 NSCLC) | TGI (MDA-MB-435) | TGI (SF-539 CNS) | TGI (HOP-62 NSCLC) | TGI (786-0 renal) | TGI (NCI-H23 lung) | TGI (OVCAR-4 ovarian) | TGI (MOLT-4 leukemia) | TGI (SW-620 colon) | TGI (HCT-116 colon) | TGI (SN12C renal) | TGI (SK-MEL-2 melanoma) | TGI (SR leukemia) | TGI (TK-10 renal) | TGI (NCI-H226 lung) | TGI (KM12 colon) | TGI (SF-295 CNS) | TGI (HCT-15 colon) | TGI (K-562 leukemia) | TGI (OVCAR-5 ovarian) | TGI (T-47D breast) | TGI (CCRF-CEM leukemia) | TGI (RPMI-8226 leukemia) | TGI (MDA-MB-231 breast) | TGI (IGROV1 ovarian) | TGI (SK-OV-3 ovarian) | TGI (EKVX NSCLC) | TGI (PC-3 prostate) | TGI (M14 melanoma) | TGI (HOP-92 NSCLC) | TGI (A498 renal) | TGI (ACHN renal) | TGI (NCI-H522 lung) | TGI (BT-549 breast) | TGI (NCI/ADR-RES ovarian) | TGI (LOX IMVI melanoma) | TGI (HT29 colon) | TGI (SF-268 CNS) | TGI (SNB-75 CNS) | TGI (MALME-3M melanoma) | TGI (RXF 393 renal) | TGI (U251 CNS) | TGI (UACC-62 melanoma) | TGI (UACC-257 melanoma) | TGI (SK-MEL-28 melanoma) | TGI (HS 578T breast) | TGI (SNB-19 CNS) | TGI (MCF7 breast) | TGI (HCC-2998 colon) | TGI (NCI-H460 lung) | TGI (UO-31 renal) | TGI (COLO 205 colon) | TGI (OVCAR-8 ovarian)

CC(=O)/C=C1\CC(=O)Nc2ccccc2N1
> 100 µM: TGI (SNB-78 CNS) | TGI (HL-60(TB) leukemia) | TGI (DLD-1 colon) | TGI (SK-MEL-5 melanoma) | TGI (KM20L2 colon) | TGI (CAKI-1 renal) | TGI (A549 NSCLC) | TGI (SF-539 CNS) | TGI (786-0 renal) | TGI (NCI-H23 lung) | TGI (OVCAR-4 ovarian) | TGI (MOLT-4 leukemia) | TGI (SW-620 colon) | TGI (HCT-116 colon) | TGI (SN12C renal) | TGI (SK-MEL-2 melanoma) | TGI (SR leukemia) | TGI (TK-10 renal) | TGI (NCI-H226 lung) | TGI (KM12 colon) | TGI (SF-295 CNS) | TGI (HCT-15 colon) | TGI (K-562 leukemia) | TGI (OVCAR-5 ovarian) | TGI (CCRF-CEM leukemia) | TGI (RPMI-8226 leukemia) | TGI (IGROV1 ovarian) | TGI (SK-OV-3 ovarian) | TGI (EKVX NSCLC) | TGI (M14 melanoma) | TGI (HOP-92 NSCLC) | TGI (A498 renal) | TGI (ACHN renal) | TGI (LXFL 529 NSCLC) | TGI (LOX IMVI melanoma) | TGI (HT29 colon) | TGI (SF-268 CNS) | TGI (SNB-75 CNS) | TGI (MALME-3M melanoma) | TGI (RXF 393 renal) | TGI (U251 CNS) | TGI (UACC-62 melanoma) | TGI (UACC-257 melanoma) | TGI (SK-MEL-28 melanoma) | TGI (SNB-19 CNS) | TGI (DMS 114 small cell lung) | TGI (HCC-2998 colon) | TGI (NCI-H460 lung) | TGI (UO-31 renal) | TGI (OVCAR-8 ovarian)
